Measurements as given in PMC6001238, “Iterative Chemical Engineering of Vancomycin Leads to Novel Vancomycin Analogs With a High in Vitro Therapeutic Index” (Frontiers in Microbiology, 2018).
≈ marks a conversion by molar mass, not a printed value. Read-outs that look alike come from different tables or passages of the source.

Tests used:
[1] = tested on: S. aureus VSSA (ATCC 6538); assay: MIC, broth microdilution, vancomycin-sensitive S. aureus (VSSA/MSSA, ATCC 6538); type: cell-based, Staphylococcus aureus; conditions: for MIC: Staphylococcus aureus VSSA, read-out: MIC; for MIC-fold improvement vs. vancomycin: VSSA, ratio of MIC of vancomycin and MIC of analogue
Outline: (§1)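 Read-out: lowest concentration inhibiting growth in broth microdilution, CLSI method. Water and broth-only wells acted as controls; in one case 10 μM vancomycin (final) was present with the compound.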

S. aureus VRSA = assay: MIC, broth microdilution, vancomycin-resistant S. aureus (VRSA); type: cell-based, Staphylococcus aureus; conditions: for MIC: Staphylococcus aureus VRSA, read-out: MIC; for MIC-fold improvement vs. vancomycin: VRSA, ratio of MIC of vancomycin and MIC of analogue
Outline: as §1

E. faecalis VRE 29 = assay: MIC, broth microdilution, vancomycin-resistant E. faecalis VRE 29 (VanA); type: cell-based, Enterococcus faecalis; conditions: for MIC: Enterococcus faecalis VRE 29 (vancomycin-resistant), read-out: MIC; for MIC-fold improvement vs. vancomycin: VRE 29, ratio of MIC of vancomycin and MIC of analogue
Outline: as §1

MRSA KS89 = assay: MIC, broth microdilution, MRSA KS89; type: cell-based, Staphylococcus aureus; conditions: for MIC-fold improvement vs. vancomycin: ratio of MIC of vancomycin and MIC of analogue; for MIC: read-out: MIC
Outline: as §1

E. faecalis VRE 53 = assay: MIC, broth microdilution, vancomycin-resistant E. faecalis VRE 53 (VanA); type: cell-based, Enterococcus faecalis; conditions: for MIC: Enterococcus faecalis VRE 53 (vancomycin-resistant), read-out: MIC; for MIC-fold improvement vs. vancomycin: VRE 53, ratio of MIC of vancomycin and MIC of analogue
Outline: as §1

E. faecalis VRE 6 = assay: MIC, broth microdilution, vancomycin-resistant E. faecalis VRE 6 (VanA); type: cell-based, Enterococcus faecalis; conditions: for MIC: Enterococcus faecalis VRE 6 (vancomycin-resistant), read-out: MIC; for MIC-fold improvement vs. vancomycin: VRE 6, ratio of MIC of vancomycin and MIC of analogue
Outline: as §1

[2] = tested on: Murine leukemia (L1210) cells; assay: Cytostatic activity, L1210 cell proliferation; type: cell-based; conditions: mean ± SD of three experiments; highest concentration tested 250 µM; 2 days; read-out: Toxicity (IC50) L1210
Outline: (§2)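 Coulter counter cell counts after 37°C culture with compound; IC50 = concentration giving 50% growth inhibition vs negative control. Incubation: L1210 2 d, CEM 3 d, HeLa 4 d. Suspension density before mixing with an equal volume of dilution: 300,000–500,000 cells/mL.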

[3] = tested on: human cervix carcinoma (HeLa) cells; assay: Cytostatic activity, HeLa cell proliferation; type: cell-based; conditions: mean ± SD of three experiments; highest concentration tested 250 µM; 4 days; read-out: Toxicity (IC50) HeLa
Outline: as §2

MRSA KS1 = assay: MIC, broth microdilution, MRSA KS1; type: cell-based, Staphylococcus aureus; conditions: for MIC-fold improvement vs. vancomycin: MRSA KS1, ratio of MIC of vancomycin and MIC of analogue; for MIC: Staphylococcus aureus MRSA KS1, read-out: MIC
Outline: as §1

[4] = tested on: L1210, CEM and HeLa cell lines; assay: Cytostatic activity, average or summary over L1210, CEM and HeLa; type: cell-based; conditions: average of L1210, CEM and HeLa; read-out: Toxicity (IC50) Average
Outline: as §2

E. faecalis VSE 1 = assay: MIC, broth microdilution, vancomycin-sensitive E. faecalis (VSE 1); type: cell-based, Enterococcus faecalis; conditions: for MIC: Enterococcus faecalis VSE 1 (vancomycin-sensitive), read-out: MIC; for MIC-fold improvement vs. vancomycin: VSE 1, ratio of MIC of vancomycin and MIC of analogue
Outline: as §1

S. aureus VISA/HIP5827 = assay: MIC, broth microdilution, vancomycin-intermediate S. aureus VISA HIP5827; type: cell-based, Staphylococcus aureus; conditions: for MIC: Staphylococcus aureus VISA/HIP5827, read-out: MIC; for MIC-fold improvement vs. vancomycin: VISA/HIP5827, ratio of MIC of vancomycin and MIC of analogue
Outline: as §1

MRSA KS2 = assay: MIC, broth microdilution, MRSA KS2; type: cell-based, Staphylococcus aureus; conditions: for MIC-fold improvement vs. vancomycin: MRSA KS2, ratio of MIC of vancomycin and MIC of analogue; for MIC: Staphylococcus aureus MRSA KS2, read-out: MIC
Outline: as §1

MRSA KS6 = assay: MIC, broth microdilution, MRSA KS6; type: cell-based, Staphylococcus aureus; conditions: for MIC-fold improvement vs. vancomycin: MRSA KS6, ratio of MIC of vancomycin and MIC of analogue; for MIC: Staphylococcus aureus MRSA KS6, read-out: MIC
Outline: as §1

E. faecalis VRE 37 = assay: MIC, broth microdilution, vancomycin-resistant E. faecalis VRE 37 (VanA); type: cell-based, Enterococcus faecalis; conditions: for MIC: Enterococcus faecalis VRE 37 (vancomycin-resistant), read-out: MIC; for MIC-fold improvement vs. vancomycin: VRE 37, ratio of MIC of vancomycin and MIC of analogue
Outline: as §1

[5] = tested on: human T-lymphocyte (CEM) cells; assay: Cytostatic activity, CEM cell proliferation; type: cell-based; conditions: mean ± SD of three experiments; highest concentration tested 250 µM; 3 days; read-out: Toxicity (IC50) CEM
Outline: as §2

MIC [1]	MIC-fold improvement vs. vancomycin [1]	MIC (S. aureus VRSA)	MIC-fold improvement vs. vancomycin (S. aureus VRSA)	MIC (E. faecalis VRE 29)	MIC-fold improvement vs. vancomycin (E. faecalis VRE 29)	MIC (E. faecalis VRE 53)	MIC-fold improvement vs. vancomycin (E. faecalis VRE 53)	MIC (E. faecalis VRE 6)	MIC-fold improvement vs. vancomycin (E. faecalis VRE 6)	MIC-fold improvement vs. vancomycin (MRSA KS1)	MIC (MRSA KS1)	MIC (E. faecalis VSE 1)	MIC-fold improvement vs. vancomycin (E. faecalis VSE 1)	MIC (S. aureus VISA/HIP5827)	MIC-fold improvement vs. vancomycin (S. aureus VISA/HIP5827)	MIC-fold improvement vs. vancomycin (MRSA KS2)	SMILES	IC50 [2]	IC50 [3]	IC50 [4]	also measured
0.10 µM (≈ 0.172 µg/mL)	8	0.39 µM (≈ 0.67 µg/mL)	256	6.25 µM (≈ 10.7 µg/mL)	64	25 µM (≈ 43 µg/mL)	16	1.56 µM (≈ 2.68 µg/mL)	128	8	0.10 µM (≈ 0.172 µg/mL)	≤0.05 µM	≥32	0.39 µM (≈ 0.67 µg/mL)	16	8	CCCCCn1cc(-c2ccc(NC(=O)CNC(=O)C3NC(=O)C4NC(=O)C(NC(=O)C5NC(=O)C(CC(N)=O)NC(=O)C(NC(=O)C(CC(C)C)NC)C(O)c6ccc(c(Cl)c6)Oc6cc5cc(c6OC5OC(CO)C(O)C(O)C5OC5CC(C)(N)C(O)C(C)O5)Oc5ccc(cc5Cl)C4O)c4ccc(O)c(c4)-c4c(O)cc(O)cc43)cc2)nn1 (stereo not drawn) [Vanc-91]	154 ± 93 µM	147 ± 11 µM	136 µM	MIC-fold improvement vs. vancomycin (MRSA KS89; MRSA KS8 (head; KS89 in title)): 4; MIC (MRSA KS89; Staphylococcus aureus MRSA KS8 (head; KS89 in title)): 0.20 µM (≈ 0.344 µg/mL); MIC (MRSA KS2): 0.10 µM (≈ 0.172 µg/mL); MIC-fold improvement vs. vancomycin (MRSA KS6): 8; MIC (MRSA KS6): 0.10 µM (≈ 0.172 µg/mL); MIC (E. faecalis VRE 37): 6.25 µM (≈ 10.7 µg/mL); MIC-fold improvement vs. vancomycin (E. faecalis VRE 37): 64; IC50 [5]: 107 ± 25 µM
0.78 µM (≈ 1.31 µg/mL)	1	6.25 µM (≈ 10.5 µg/mL)	16	12.5 µM (≈ 21 µg/mL)	32	50 µM (≈ 83.9 µg/mL)	8	3.13 µM (≈ 5.25 µg/mL)	64	2	0.39 µM (≈ 0.654 µg/mL)	0.39 µM (≈ 0.654 µg/mL)	4	0.78 µM (≈ 1.31 µg/mL)	8	2	CNC(CC(C)C)C(=O)NC1C(=O)NC(CC(N)=O)C(=O)NC2C(=O)NC3C(=O)NC(C(=O)NC(C(=O)NCCCNC(=O)c4ccc(C(F)(F)F)cc4)c4cc(O)cc(O)c4-c4cc3ccc4O)C(O)c3ccc(c(Cl)c3)Oc3cc2cc(c3OC2OC(CO)C(O)C(O)C2OC2CC(C)(N)C(O)C(C)O2)Oc2ccc(cc2Cl)C1O (stereo not drawn) [Vanc-32]	164 ± 46 µM	106 ± 2 µM	157 µM	MIC-fold improvement vs. vancomycin (MRSA KS89; MRSA KS8): 2; MIC (MRSA KS89; Staphylococcus aureus MRSA KS8): 0.39 µM (≈ 0.654 µg/mL); MIC (MRSA KS2): 0.39 µM (≈ 0.654 µg/mL); MIC-fold improvement vs. vancomycin (MRSA KS6): 2; MIC (MRSA KS6): 0.39 µM (≈ 0.654 µg/mL); MIC (E. faecalis VRE 37): 25 µM (≈ 41.9 µg/mL); MIC-fold improvement vs. vancomycin (E. faecalis VRE 37): 16; IC50 [5]: 200 ± 12 µM

SMILES	MIC [1]	MIC-fold improvement vs. vancomycin [1]	MIC (S. aureus VRSA)	MIC-fold improvement vs. vancomycin (S. aureus VRSA)	MIC (E. faecalis VRE 29)	MIC-fold improvement vs. vancomycin (E. faecalis VRE 29)	MIC (E. faecalis VRE 53)	MIC-fold improvement vs. vancomycin (E. faecalis VRE 53)	MIC (E. faecalis VRE 6)	MIC-fold improvement vs. vancomycin (E. faecalis VRE 6)	MIC-fold improvement vs. vancomycin (MRSA KS1)	MIC (MRSA KS1)	MIC (E. faecalis VSE 1)	MIC-fold improvement vs. vancomycin (E. faecalis VSE 1)	MIC (S. aureus VISA/HIP5827)	MIC-fold improvement vs. vancomycin (S. aureus VISA/HIP5827)	MIC-fold improvement vs. vancomycin (MRSA KS2)	IC50 [2]	IC50 [3]	IC50 [4]	also measured
CN[C@H](CC(C)C)C(=O)N[C@H]1C(=O)N[C@@H](CC(N)=O)C(=O)N[C@H]2C(=O)N[C@H]3C(=O)N[C@H](C(=O)N[C@H](C(=O)NCCNC(=O)/C=C/c4cccc(OC)c4)c4cc(O)cc(O)c4-c4cc3ccc4O)[C@H](O)c3ccc(c(Cl)c3)Oc3cc2cc(c3O[C@@H]2O[C@H](CO)[C@@H](O)[C@H](O)[C@H]2O[C@H]2C[C@](C)(N)[C@H](O)[C@H](C)O2)Oc2ccc(cc2Cl)[C@H]1O [Vanc-23]	0.39 µM (≈ 0.644 µg/mL)	2	6.25 µM (≈ 10.3 µg/mL)	16	12.5 µM (≈ 20.6 µg/mL)	32	25 µM (≈ 41.3 µg/mL)	16	3.13 µM (≈ 5.17 µg/mL)	64	1	0.78 µM (≈ 1.29 µg/mL)	0.39 µM (≈ 0.644 µg/mL)	4	0.78 µM (≈ 1.29 µg/mL)	8	2	> 250 µM	> 250 µM	> 250 µM	MIC-fold improvement vs. vancomycin (MRSA KS89; MRSA KS8): 1; MIC (MRSA KS89; Staphylococcus aureus MRSA KS8): 0.78 µM (≈ 1.29 µg/mL); MIC (MRSA KS2): 0.39 µM (≈ 0.644 µg/mL); MIC-fold improvement vs. vancomycin (MRSA KS6): 1; MIC (MRSA KS6): 0.78 µM (≈ 1.29 µg/mL); MIC (E. faecalis VRE 37): 25 µM (≈ 41.3 µg/mL); MIC-fold improvement vs. vancomycin (E. faecalis VRE 37): 16; IC50 [5]: > 250 µM
